For data set [1], the system named is bicistronic HCV replicon (replicon RNA, GenBank Accession No. AJ242654). Description: HCV Replicon Assay. It counts as cell-based. The note with it: Hepatitis C virus, 72 h, read-out: Replicon IC50. (A replicon is a self-replicating genome or part of one, used to study replication in cells.)

Each structure is given as a SMILES string. pIC50: −log10 of the molar value.

The term pIC50 denotes the IC50 on a negative log10 scale, so that one unit is a factor of ten. One may read the melting point as the temperature, or range, at which the solid turns liquid.

Turning to `C[C@H](NS(=O)(=O)c1ccc(-c2c(C#N)c3ccc(Cl)cc3n2C2CCCCC2)nc1)C(F)(F)F` [compound 515, 6-(6-chloro-3-cyano-1-cyclohexyl-1H-indol-2-yl)-N-[(2S)-1,1,1-trifluoropropan-2-yl]pyridine-3-sulfonamide], the melting point fell in the range of 217 to 224 °C. The pIC50 in data set [1] is greater than 6.30.
The corresponding values for `CCc1cc2c(cc1F)c(C#N)c(-c1ccc(S(=O)(=O)NC(C)(C)C)cn1)n2-c1cnccn1` [compound 899, N-tert-butyl-6-[3-cyano-6-ethyl-5-fluoro-1-(pyrazin-2-yl)-1H-indol-2-yl]pyridine-3-sulfonamide] are 196 to 201 °C and greater than 6.30.
For the compound `Cc1ccc2c(C#N)c(-c3ccc(S(=O)(=O)NC(C)(C)C(F)(F)F)cn3)n(C3CCC3)c2c1F` [compound 578, 6-(3-cyano-1-cyclobutyl-7-fluoro-6-methyl-1H-indol-2-yl)-N-(1,1,1-trifluoro-2-methylpropan-2-yl)pyridine-3-sulfonamide], the melting point was in the range of 168 to 175 °C. Moreover, in data set [1], the negative logarithm of the IC50 (pIC50) is greater than 6.30.
The corresponding values for `Cc1cc2c(cc1F)c(C#N)c(-c1ccc(S(=O)(=O)N[C@@H](C)C(F)(F)F)cn1)n2-c1ccc(F)c(C)n1` [compound 961, 6-[3-cyano-5-fluoro-1-(5-fluoro-6-methylpyridin-2-yl)-6-methyl-1H-indol-2-yl]-N-[(2S)-1,1,1-trifluoropropan-2-yl]pyridine-3-sulfonamide] are 240 to 246 °C and greater than 6.30.
Regarding `CCc1cc2c(cc1F)c(C(N)=O)c(-c1ccc(NS(=O)(=O)C(C)(C)C)nc1)n2[C@@H](C)C1CC1` [compound 1083, 2-{6-[(tert-butylsulfonyl)amino]pyridin-3-yl}-1-[(1S)-1-cyclopropylethyl]-6-ethyl-5-fluoro-1H-indole-3-carboxamide], the melting point was in the range of 256 to 259 °C. In addition, in data set [1], the negative logarithm of the IC50 (pIC50) was greater than 6.30.
In turn, `CCCn1c(-c2ccc(S(=O)(=O)N[C@H](C)C(F)(F)F)cn2)c(C#N)c2ccc(F)cc21` [compound 217, 6-(3-cyano-6-fluoro-1-propyl-1H-indol-2-yl)-N-[(2R)-1,1,1-trifluoropropan-2-yl]pyridine-3-sulfonamide] displayed a melting point of 195 to 197 °C. The pIC50 in data set [1] was 5.30 to 5.70.
The corresponding values for `N#Cc1c(-c2ccc(S(=O)(=O)NC(CF)CF)cn2)n(-c2ncccn2)c2cc(OC(F)F)ccc12` [compound 635, 6-[3-cyano-6-(difluoromethoxy)-1-(pyrimidin-2-yl)-1H-indol-2-yl]-N-(1,3-difluoropropan-2-yl)pyridine-3-sulfonamide] are 173 to 176 °C and greater than 6.30.
`Cc1cnc(-n2c(-c3ccc(S(=O)(=O)N[C@@H](C)C(F)(F)F)cn3)c(C#N)c3cc(F)c(C)cc32)s1` [compound 1017, 6-[3-cyano-5-fluoro-6-methyl-1-(5-methyl-1,3-thiazol-2-yl)-1H-indol-2-yl]-N-[(2S)-1,1,1-trifluoropropan-2-yl]pyridine-3-sulfonamide]: the melting point lay within 223.1 to 228.1 °C. Further, the pIC50 in data set [1] is greater than 6.30.
On to `N#Cc1c(-c2ncc(S(=O)(=O)NC(CF)CF)cn2)n(C2CCC2)c2cc(C3CCC3)ccc12` [compound 264, 2-(3-cyano-1,6-dicyclobutyl-1H-indol-2-yl)-N-(1,3-difluoropropan-2-yl)pyrimidine-5-sulfonamide], for which the melting point was 184 to 188 °C. Moreover, the negative-log IC50 (pIC50) in data set [1] was 5.70 to 6.30.
For the compound `Cc1cc2c(cc1F)c(C(N)=O)c(-c1ccc(S(=O)(=O)NC3(C(F)(F)F)CC3)cn1)n2C1CCCC1` [compound 730, 1-cyclopentyl-5-fluoro-6-methyl-2-(5-{[1-(trifluoromethyl)cyclopropyl]sulfamoyl}pyridin-2-yl)-1H-indole-3-carboxamide], the melting point was 220 to 221 °C. The negative logarithm of the IC50 (pIC50) in data set [1] is greater than 6.30.
For `Cc1c(F)cc2c(C#N)c(-c3ccc(S(=O)(=O)NC(CF)CF)cn3)n(C3CCC3)c2c1F` [compound 533, 6-(3-cyano-1-cyclobutyl-5,7-difluoro-6-methyl-1H-indol-2-yl)-N-(1,3-difluoropropan-2-yl)pyridine-3-sulfonamide], in that order: 158 to 170 °C and greater than 6.30.
The corresponding values for `Cc1ccc(-n2c(-c3ncc(S(=O)(=O)NC(C)C)cn3)c(C#N)c3cc(F)ccc32)cc1` [compound 357, 2-[3-cyano-5-fluoro-1-(4-methylphenyl)-1H-indol-2-yl]-N-(propan-2-yl)pyrimidine-5-sulfonamide] are 200 to 202 °C and greater than 6.30.
For `C[C@H](NS(=O)(=O)c1cnc(-c2c(C#N)c3ccc(C4CC4)cc3n2C2CCCC2)nc1)C(F)(F)F` [compound 401, 2-(3-cyano-1-cyclopentyl-6-cyclopropyl-1H-indol-2-yl)-N-[(2S)-1,1,1-trifluoropropan-2-yl]pyrimidine-5-sulfonamide], in that order: 238 to 239 °C and greater than 6.30.
`Cc1cc2c(cc1F)c(C#N)c(-c1ccc(S(=O)(=O)NC(C)C)cn1)n2C1CCC1` [compound 655, 6-(3-cyano-1-cyclobutyl-5-fluoro-6-methyl-1H-indol-2-yl)-N-(propan-2-yl)pyridine-3-sulfonamide] displayed a melting point of 222 to 226 °C. Moreover, in data set [1], the negative-log IC50 (pIC50) is greater than 6.30.
For `C[C@H](NS(=O)(=O)c1ccc(-c2c(C#N)c3cc(C(F)F)ccc3n2C2CCCC2)nc1)C(F)(F)F` [compound 537, 6-[3-cyano-1-cyclopentyl-5-(difluoromethyl)-1H-indol-2-yl]-N-[(2S)-1,1,1-trifluoropropan-2-yl]pyridine-3-sulfonamide], in that order: 187 to 188 °C and greater than 6.30.
The corresponding values for `C[C@H](NS(=O)(=O)c1cnc(-c2c(C#N)c3ccc(OC(F)F)cc3n2C2CCC2)nc1)C(F)(F)F` [compound 323, 2-[3-cyano-1-cyclobutyl-6-(difluoromethoxy)-1H-indol-2-yl]-N-[(2S)-1,1,1-trifluoropropan-2-yl]pyrimidine-5-sulfonamide] are 221 to 223 °C and greater than 6.30.
In turn, `Cc1ccc2c(c1)c(C#N)c(-c1ccc(S(=O)(=O)N[C@@H](C)C(F)(F)F)cn1)n2C1CCCCC1` [compound 560, 6-(3-cyano-1-cyclohexyl-5-methyl-1H-indol-2-yl)-N-[(2S)-1,1,1-trifluoropropan-2-yl]pyridine-3-sulfonamide] displayed a melting point of 175 to 180 °C. In addition, in data set [1], the pIC50 was greater than 6.30.
The corresponding values for `COc1ccc2c(C#N)c(-c3ccc(NS(=O)(=O)C(C)(C)C)nn3)n(C3CCC3)c2c1` [compound 278, N-[6-(3-cyano-1-cyclobutyl-6-methoxy-1H-indol-2-yl)pyridazin-3-yl]-2-methylpropane-2-sulfonamide] are 218 to 220 °C and 5.70 to 6.30.
For `Cc1cc2c(cc1F)c(C(N)=O)c(-c1ccc(S(=O)(=O)N[C@H](C)C(F)(F)F)cn1)n2C1CCCCC1` [compound 716, 1-cyclohexyl-5-fluoro-6-methyl-2-(5-{[(2R)-1,1,1-trifluoropropan-2-yl]sulfamoyl}pyridin-2-yl)-1H-indole-3-carboxamide], the melting point was in the range of 272 to 276 °C. Besides, the negative-log IC50 (pIC50) in data set [1] is greater than 6.30.
For `Cc1ccc2c(C#N)c(-c3ccc(S(=O)(=O)NC(C)(C)C(F)(F)F)cn3)n(C3CCC3)c2c1` [compound 478, 6-(3-cyano-1-cyclobutyl-6-methyl-1H-indol-2-yl)-N-(1,1,1-trifluoro-2-methylpropan-2-yl)pyridine-3-sulfonamide], in that order: 222 to 227 °C and greater than 6.30.
Compound `C[C@@H](NS(=O)(=O)c1ccc(-c2c(C#N)c3ccc(F)cc3n2CC2CC2)nc1)C(F)(F)F` [compound 216, 6-[3-cyano-1-(cyclopropylmethyl)-6-fluoro-1H-indol-2-yl]-N-[(2R)-1,1,1-trifluoropropan-2-yl]pyridine-3-sulfonamide] displayed a melting point of 173 to 175 °C. Besides, the pIC50 in data set [1] is 5.70 to 6.30.
The corresponding values for `CC(C)n1c(-c2ccc(S(=O)(=O)N[C@H](C)C(F)(F)F)cn2)c(C#N)c2ccc(OC(F)F)cc21` [compound 194, 6-[3-cyano-6-(difluoromethoxy)-1-(propan-2-yl)-1H-indol-2-yl]-N-[(2R)-1,1,1-trifluoropropan-2-yl]pyridine-3-sulfonamide] are 166 to 168 °C and greater than 6.30.
Turning to `Cc1ccc2c(C#N)c(-c3ccc(S(=O)(=O)N[C@@H](C)C4CC4)cn3)n(C3CCC3)c2c1` [compound 238, 6-(3-cyano-1-cyclobutyl-6-methyl-1H-indol-2-yl)-N-[(1S)-1-cyclopropylethyl]pyridine-3-sulfonamide], the melting point lay in the range of 181 to 187 °C. In data set [1], the pIC50 was greater than 6.30.
The compound `Cc1cc2c(cc1F)c(C(N)=O)c(-c1ccc(S(=O)(=O)N[C@@H](C)C(F)(F)F)cn1)n2C1CCC1` [compound 737, 1-cyclobutyl-5-fluoro-6-methyl-2-(5-{[(2S)-1,1,1-trifluoropropan-2-yl]sulfamoyl}pyridin-2-yl)-1H-indole-3-carboxamide] had a melting point of 190 to 194 °C. Also, the pIC50 in data set [1] is greater than 6.30.
The corresponding values for `Cc1ccc2c(c1)c(C#N)c(-c1ccc(S(=O)(=O)NC(CF)CF)cn1)n2CC1CC1` [compound 373, 6-[3-cyano-1-(cyclopropylmethyl)-5-methyl-1H-indol-2-yl]-N-(1,3-difluoropropan-2-yl)pyridine-3-sulfonamide] are 186 to 188 °C and greater than 6.30.
The corresponding values for `C[C@H](NS(=O)(=O)c1ccc(-c2c(C#N)c3ccc(F)cc3n2C2CCCCC2)nc1)C(F)(F)F` [compound 394, 6-(3-cyano-1-cyclohexyl-6-fluoro-1H-indol-2-yl)-N-[(2S)-1,1,1-trifluoropropan-2-yl]pyridine-3-sulfonamide] are 213 to 215 °C and greater than 6.30.

(Values after patent US8735414B2 (priority 2009, dated 2014).)
